In ChEMBL document CHEMBL5137082, “Discovery of a Novel Vascular Disrupting Agent Inhibiting Tubulin Polymerization and HDACs with Potent Antitumor Effects” (J Med Chem, 2022):
One block for each molecule: values may come before it. Calls of active or inactive are those of the source. The calls are words filed in the database; no cut-off is given here.

Experiments:
MCF7 = experiment: Antiproliferative activity against human MCF7 cells assessed as inhibition of cell growth measured after 72 hrs by MTT assay; format: functional, cell-based; conditions: MCF7, 72 h
HUVEC = experiment: Antivascular activity against HUVEC cells assessed as inhibition of capillary-like tubule formation at 30 nM measured after 6 hrs by inverted microscopy; format: functional, cell-based; conditions: Homo sapiens
K562 = experiment: cells; format: functional, cell-based; conditions: Homo sapiens, K562, 72 h
Description: Antiproliferative activity against human K562 cells assessed as inhibition of cell growth measured after 72 hrs by MTT assay

HCT-116 = experiment: Antiproliferative activity against human HCT-116 cells assessed as inhibition of cell growth measured after 72 hrs by MTT assay; format: functional, cell-based; conditions: HCT-116, 72 h
MDA-MB-231 = experiment: Antiproliferative activity against human MDA-MB-231 cells assessed as inhibition of cell growth measured after 72 hrs by MTT assay; format: functional, cell-based; conditions: MDA-MB-231, 72 h
H22 [1] = experiment: Antiproliferative activity against mouse H22 cells assessed as inhibition of cell growth measured after 72 hrs by MTT assay; format: functional, cell-based; conditions: H22, 72 h
[2] = Antiproliferative activity against human HFL1 cells assessed as inhibition of cell growth measured after 72 hrs by MTT assay; format: toxicity, cell-based
H22 [3] = experiment: Antivascular activity against mouse H22 cells allografted in ICR mouse assessed as inhibition of blood vessel formation at 20 mg/kg, iv administered qd measured after 21 days by immunohistochemistry analysis; format: functional, organism-based; conditions: time 21.0 day
HepG2 = experiment: Antiproliferative activity against human HepG2 cells assessed as inhibition of cell growth measured after 72 hrs by MTT assay; format: functional, cell-based; conditions: HepG2, 72 h
H22 [4] = experiment: Antivascular activity against mouse H22 cells allografted in ICR mouse assessed as reduction in tumor microvessel density by measuring CD31-positive cells at 20 mg/kg, iv administered qd measured after 21 days by immunohistochemistry analysis; format: functional, organism-based; conditions: time 21.0 day
H22 [5] = experiment: Antitumor activity against mouse H22 cells allografted in ICR mouse assessed as reduction in tumor weight at 20 mg/kg, iv administered qd measured after 21 days; format: functional; design: scale not given: the % may be the effect or the level left; conditions: time 21 day
Histone deacetylase 1 = Histone deacetylase 1 (Homo sapiens, UniProt Q13547); experiment: Inhibition of HDAC1 in human HeLa cells using BOC-K(Ac)-AMC as substrate measured after 30 mins by fluorescence based microtiter plate reader assay; format: cell-based
Histone deacetylase 1, sequence (Q13547 whole entry): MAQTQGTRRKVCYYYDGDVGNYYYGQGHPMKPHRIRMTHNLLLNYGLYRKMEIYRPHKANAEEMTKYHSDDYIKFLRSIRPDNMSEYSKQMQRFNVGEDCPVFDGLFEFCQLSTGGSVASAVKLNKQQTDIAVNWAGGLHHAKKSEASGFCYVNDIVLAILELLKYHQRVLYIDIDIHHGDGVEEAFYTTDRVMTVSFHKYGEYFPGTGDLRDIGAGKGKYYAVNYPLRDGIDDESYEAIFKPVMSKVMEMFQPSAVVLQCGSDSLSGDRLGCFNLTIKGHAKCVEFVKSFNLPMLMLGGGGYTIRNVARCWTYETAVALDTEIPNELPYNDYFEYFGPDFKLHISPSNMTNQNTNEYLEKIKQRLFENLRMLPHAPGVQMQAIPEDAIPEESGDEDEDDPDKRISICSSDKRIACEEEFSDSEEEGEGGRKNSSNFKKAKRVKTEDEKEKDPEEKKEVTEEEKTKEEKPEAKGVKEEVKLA

Histone deacetylase 8 = target: T1, Histone deacetylase 8 (Homo sapiens, UniProt Q9BY41); experiment: Inhibition of HDAC8 in human HeLa cells using BOC-K(Ac)-AMC as substrate measured after 30 mins by fluorescence based microtiter plate reader assay; format: cell-based
T1 sequence (Q9BY41 whole entry): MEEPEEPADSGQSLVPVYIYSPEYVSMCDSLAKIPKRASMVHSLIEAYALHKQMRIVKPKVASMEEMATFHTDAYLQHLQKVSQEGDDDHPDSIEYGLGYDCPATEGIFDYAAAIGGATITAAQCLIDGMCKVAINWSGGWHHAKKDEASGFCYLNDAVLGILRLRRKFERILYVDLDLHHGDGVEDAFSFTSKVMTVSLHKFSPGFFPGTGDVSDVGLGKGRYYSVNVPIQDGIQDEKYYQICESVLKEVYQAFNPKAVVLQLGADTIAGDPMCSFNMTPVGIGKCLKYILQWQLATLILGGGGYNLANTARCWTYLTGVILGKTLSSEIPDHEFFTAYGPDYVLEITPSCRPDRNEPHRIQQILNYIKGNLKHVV

Histone deacetylase 3 = Histone deacetylase 3 (Homo sapiens, UniProt O15379); experiment: Inhibition of HDAC3 in human HeLa cells using BOC-K(Ac)-AMC as substrate measured after 30 mins by fluorescence based microtiter plate reader assay; format: cell-based
Histone deacetylase 3, sequence (O15379 whole entry): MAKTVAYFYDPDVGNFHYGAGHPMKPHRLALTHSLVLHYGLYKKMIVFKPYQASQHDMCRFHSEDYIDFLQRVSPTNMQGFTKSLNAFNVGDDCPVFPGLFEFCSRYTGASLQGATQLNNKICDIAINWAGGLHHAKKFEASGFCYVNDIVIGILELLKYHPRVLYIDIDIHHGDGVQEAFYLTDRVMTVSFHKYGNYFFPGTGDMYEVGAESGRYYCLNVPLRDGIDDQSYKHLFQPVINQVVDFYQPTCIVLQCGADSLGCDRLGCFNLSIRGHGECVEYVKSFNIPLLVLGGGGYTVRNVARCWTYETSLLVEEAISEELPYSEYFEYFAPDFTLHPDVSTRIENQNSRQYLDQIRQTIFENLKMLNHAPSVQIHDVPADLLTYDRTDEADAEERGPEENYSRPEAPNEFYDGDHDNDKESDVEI

Histone deacetylase 2 = Histone deacetylase 2 (Homo sapiens, UniProt Q92769); experiment: Inhibition of HDAC2 in human HeLa cells using BOC-K(Ac)-AMC as substrate measured after 30 mins by fluorescence based microtiter plate reader assay; format: cell-based
Histone deacetylase 2, sequence (Q92769 whole entry): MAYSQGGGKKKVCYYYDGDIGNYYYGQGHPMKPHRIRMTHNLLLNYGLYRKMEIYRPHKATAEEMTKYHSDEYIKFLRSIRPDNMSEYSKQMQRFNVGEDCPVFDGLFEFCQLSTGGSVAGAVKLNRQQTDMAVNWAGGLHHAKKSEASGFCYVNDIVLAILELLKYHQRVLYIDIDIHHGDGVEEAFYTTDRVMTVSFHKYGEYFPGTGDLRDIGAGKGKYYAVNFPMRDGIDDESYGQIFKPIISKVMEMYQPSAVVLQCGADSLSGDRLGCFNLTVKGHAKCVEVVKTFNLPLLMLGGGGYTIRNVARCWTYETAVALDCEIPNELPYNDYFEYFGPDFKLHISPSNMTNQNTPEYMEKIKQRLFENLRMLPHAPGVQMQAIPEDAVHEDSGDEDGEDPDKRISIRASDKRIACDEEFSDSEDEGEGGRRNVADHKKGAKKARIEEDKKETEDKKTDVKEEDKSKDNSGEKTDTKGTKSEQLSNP

[6] = target: T2, Protein deacetylase HDAC6 (Homo sapiens, UniProt Q9UBN7); experiment: Inhibition of HDAC6 in human HeLa cells using BOC-K(Ac)-AMC as substrate measured after 30 mins by fluorescence based microtiter plate reader assay; format: cell-based
T2 sequence (Q9UBN7 whole entry): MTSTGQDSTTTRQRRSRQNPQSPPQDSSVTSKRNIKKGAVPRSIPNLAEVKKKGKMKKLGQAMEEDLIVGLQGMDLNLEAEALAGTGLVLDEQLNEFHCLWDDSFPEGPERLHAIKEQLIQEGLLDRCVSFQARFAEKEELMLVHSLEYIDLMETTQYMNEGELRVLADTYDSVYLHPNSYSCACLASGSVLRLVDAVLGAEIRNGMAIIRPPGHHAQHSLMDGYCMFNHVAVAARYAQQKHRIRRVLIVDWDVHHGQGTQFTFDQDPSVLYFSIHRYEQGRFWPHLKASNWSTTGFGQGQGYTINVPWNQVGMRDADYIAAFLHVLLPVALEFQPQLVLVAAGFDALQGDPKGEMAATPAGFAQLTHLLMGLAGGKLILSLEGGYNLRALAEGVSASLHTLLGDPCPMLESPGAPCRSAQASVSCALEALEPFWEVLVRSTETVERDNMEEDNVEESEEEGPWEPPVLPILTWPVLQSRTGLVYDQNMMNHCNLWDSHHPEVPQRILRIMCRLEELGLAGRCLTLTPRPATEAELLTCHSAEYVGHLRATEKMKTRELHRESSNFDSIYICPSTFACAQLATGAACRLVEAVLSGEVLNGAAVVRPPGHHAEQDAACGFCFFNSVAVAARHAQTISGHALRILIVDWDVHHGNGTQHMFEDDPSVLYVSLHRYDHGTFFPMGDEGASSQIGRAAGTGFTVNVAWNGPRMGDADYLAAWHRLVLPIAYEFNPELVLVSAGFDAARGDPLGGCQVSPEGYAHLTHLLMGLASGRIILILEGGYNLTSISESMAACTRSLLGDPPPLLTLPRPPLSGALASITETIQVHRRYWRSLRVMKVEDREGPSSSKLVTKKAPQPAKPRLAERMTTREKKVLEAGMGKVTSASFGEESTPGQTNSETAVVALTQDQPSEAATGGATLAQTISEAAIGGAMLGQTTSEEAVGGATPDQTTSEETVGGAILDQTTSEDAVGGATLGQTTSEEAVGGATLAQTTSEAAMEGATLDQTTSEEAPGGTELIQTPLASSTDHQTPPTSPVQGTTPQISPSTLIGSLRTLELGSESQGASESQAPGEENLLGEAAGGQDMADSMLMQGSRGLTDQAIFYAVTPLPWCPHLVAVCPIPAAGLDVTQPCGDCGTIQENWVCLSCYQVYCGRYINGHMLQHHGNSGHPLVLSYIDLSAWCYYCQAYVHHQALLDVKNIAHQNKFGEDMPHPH

H22 [7] = experiment: Antitumor activity against mouse H22 cells allografted in ICR mouse assessed as reduction in tumor weight at 25 mg/kg, ip administered qd measured after 21 days; format: functional; design: scale not given: the % may be the effect or the level left; conditions: time 21 day

Compound: COc1cc(CNC(=O)c2cc(F)ccc2N2CCOCC2)ccc1/C=C/C(=O)NO
- IC50 (K562): 1970 nM

Compound: COc1cc(/C=C/C(=O)NO)ccc1CNC(=O)c1cc(F)ccc1N1CCOCC1
- IC50 (K562): 1660 nM

Compound: COc1cc(CCC(=O)NO)ccc1CNC(=O)c1cc(F)ccc1N1CCOCC1
- IC50 (K562): > 2000 nM

Compound: COc1ccc(CNC(=O)c2cc(F)ccc2N2CCOCC2)cc1CCC(=O)NO
- IC50 (K562): > 2000 nM

Compound: COc1ccc(CNC(=O)c2cc(OCCCC(=O)NO)ccc2N2CCOCC2)cc1O
- IC50 (K562): > 2000 nM

Compound: COc1ccc(CNC(=O)c2cc(F)ccc2N2CCOCC2)c(/C=C/C(=O)NO)c1
- IC50 (K562): 2000 nM

Compound: COc1ccc(CNC(=O)c2cc(C#CCCC(=O)NO)ccc2N2CCOCC2)cc1O
- IC50 (K562): > 2000 nM

Compound: COc1ccc(CNC(=O)c2cc(C#CCCCCC(=O)NO)ccc2N2CCOCC2)cc1O
- IC50 (K562): > 2000 nM

Compound: COc1ccc(CNC(=O)c2cc(F)ccc2N2CCOCC2)c(CCC(=O)NO)c1
- IC50 (K562): 1060 nM

Compound: COc1ccc(CNC(=O)c2cc(C(=O)NO)ccc2N2CCOCC2)cc1O
- IC50 (K562): > 2000 nM

Compound: O=C(CCCCCCC(=O)Nc1ccccc1)NO [VORINOSTAT]
- Activity (H22 [7]): 61%

Compound: COc1ccc(CNC(=O)c2cc(/C=C/C(=O)NO)ccc2N2CCOCC2)cc1O
- IC50 (K562): > 2000 nM

Compound: COc1cc(CNC(=O)c2cc(F)ccc2N2CCOCC2)ccc1CCC(=O)NO
- IC50 (K562): > 2000 nM

Compound: COc1ccc(CNC(=O)c2cc(OCC(=O)NO)ccc2N2CCOCC2)cc1O
- IC50 (K562): > 2000 nM

Compound: COc1ccc(CNC(=O)c2cc(OCCCCCCC(=O)NO)ccc2N2CCOCC2)cc1O
- IC50 (K562): > 2000 nM

Compound: COc1ccc(CNC(=O)c2cc(F)ccc2N2CCOCC2)cc1OCCCCCCC(=O)NO
- IC50 (K562): 1500 nM

Compound: COc1ccc(CNC(=O)c2cc(F)ccc2N2CCOCC2)cc1C(=O)Nc1ccccc1N
- IC50 (K562): > 2000 nM

More lines, in order of falling IC50 (K562), values ahead:

- IC50 (K562): 1040 nM
Compound: COc1ccc(CNC(=O)c2cc(F)ccc2N2CCOCC2)cc1OCCCC(=O)NO

- IC50 (K562): 1030 nM
Compound: COc1ccc(CNC(=O)c2cc(F)ccc2N2CCOCC2)cc1C(=O)NO

- IC50 (K562): 921 nM
Compound: COc1ccc(CNC(=O)c2cc(F)ccc2N2CCOCC2)cc1C#CCCCCC(=O)NO

- IC50 (K562): 664 nM
Compound: O=C(/C=C/c1cccc(CNC(=O)c2cc(F)ccc2N2CCOCC2)c1)NO

- IC50 (K562): 354 nM
Compound: COc1ccc(CNC(=O)c2cc(F)ccc2N2CCOCC2)cc1C#CCCC(=O)NO

- IC50 (MCF7): 775 nM
- IC50 (K562): 285 nM
- IC50 (HCT-116): 823 nM
- IC50 (MDA-MB-231): 642 nM
- IC50 (HepG2): 700 nM
Compound: O=C(/C=C/c1cc(CNC(=O)c2cc(F)ccc2N2CCOCC2)ccc1O)NO
- IC50 (H22 [1]): 733 nM
- IC50 at 72 h [2]: 3260 nM

- IC50 (MCF7): 105 nM
- IC50 (K562): 114 nM
- IC50 (HCT-116): 77 nM
- IC50 (Histone deacetylase 1): 16500 nM
- IC50 (MDA-MB-231): 101 nM
- IC50 (Histone deacetylase 8): 2240 nM
- IC50 (Histone deacetylase 3): 530 nM
- IC50 (HepG2): 97 nM
- IC50 (Histone deacetylase 2): 28000 nM
- IC50 [6]: 668 nM
Compound: COc1ccc(CNC(=O)c2cc(C(=O)Nc3ccccc3N)ccc2N2CCOCC2)cc1O
- IC50 (H22 [1]): 96 nM
- IC50 at 72 h [2]: 323 nM

- IC50 (MCF7): 124 nM
- IC50 (K562): 61 nM
- IC50 (HCT-116): 105 nM
- IC50 (Histone deacetylase 1): 8860 nM
- IC50 (MDA-MB-231): 104 nM
- IC50 (Histone deacetylase 8): 16500 nM
- IC50 (Histone deacetylase 3): 3250 nM
- IC50 (HepG2): 114 nM
- IC50 (Histone deacetylase 2): 6720 nM
- IC50 [6]: 2420 nM
Compound: COc1ccc(CNC(=O)c2cc(F)ccc2N2CCOCC2)cc1OCC(=O)NO
- IC50 (H22 [1]): 95 nM
- IC50 at 72 h [2]: 495 nM

- IC50 (MCF7): 32 nM
- IC50 (K562): 17 nM
- IC50 (HCT-116): 29 nM
- IC50 (MDA-MB-231): 26 nM
- IC50 (HepG2): 27 nM
Compound: COc1ccc(CNC(=O)c2cc(F)ccc2N2CCOCC2)cc1O
- Activity (HUVEC): Active
- IC50 (H22 [1]): 29 nM
- IC50 at 72 h [2]: 126 nM
- Activity (H22 [3]): Active
- Activity (H22 [4]): Active
- Activity (H22 [5]): 74%
